Test results taken from patent publication US12275953B2, “Methods for screening host cells expressing target proteins” (Industrial Technology Research Institute, priority 2020, dated 2025).
Read-outs that look alike come from different tables or passages of the source.

What was measured:
[1] = tested on: CHOK1 cell lines Fth1-WT and Fth1-KO transfected with pCDNA3.1-CMV-cgFth1-p2A-EGFP; assay: Screening efficiency of transfected cells under iron ion-induced ferroptosis (Celigo Image Cytometer); type: cell-based, Chinese hamster
Procedure: After 24 hours of adherent culture in F12 medium (Ham's F-12 Nutrient Mix, Gibco) containing 10% FBS, the transfection of vector (pCDNA3.1-CMV-cgFth1-p2A-EGFP) was carried out with Lipofectamine 3000 (Thermo Fisher Scientific Inc.) to promote the overexpression of FTH1 gene. 24 hours after the DNA transfection of the vectors, 125 μM ferrous sulfate (FeSO4) was added to the cell culture broth, and at the same time different doses of ferroptosis inducers FINO2 (0 μM to 20 μM) were added to induce ferroptosis. After 3 days (72 hours) of action, the Celigo Image Cytometer (Nexcelom) was used to analyze the cell morphology, viability, cell count, fluorescent cell count, and fluorescence quantification, thereby estimating the screening efficiency.

[2] = tested on: CHOK1 cell lines Fth1_WT and Fth1_KO
[3] = tested on: VERO cell line; settings: 125 μM FeSO4, 72 hours, cells transfected with pCDNA3.1-CMV-cgFth1-p2A-EGFP vs Mock vector
Procedure: (§1) After 24 hours of adherent culture in F12 medium (Ham's F-12 Nutrient Mix, Gibco) containing 10% FBS, the transfection of vectors (pCDNA3.1-CMV-cgFth1-p2A-EGFP and pCDNA3.1-CMV-p2A-EGFP_Mock, which served as a blank control group) were carried out with Lipofectamine 3000 (Thermo Fisher Scientific Inc.) to promote the overexpression of FTH1 gene. 24 hours after the DNA transfection of the vectors, 125 μM ferrous sulfate (FeSO4) was added to the cell culture broth, and at the same time different doses of ferroptosis inducers FINO2 (0 μM to 20 μM) were added to induce ferroptosis. After 3 days (72 hours) of action, the Celigo Image Cytometer (Nexcelom) was used to analyze the fluorescence cell count and fluorescence quantification, thereby estimating the screening efficiency.

[4] = tested on: HEK293T cell line; settings: 125 μM FeSO4, 72 hours, cells transfected with pCDNA3.1-CMV-cgFth1-p2A-EGFP vs Mock vector
Procedure: as §1

[5] = tested on: CHOK1 cell lines Fth1_WT and Fth1_KO; assay: Cytotoxicity test of screening medium formulations (AlamarBlue cell viability); settings: FINO2 and fatty acid PA together, without the addition of iron ions FeSO4
[6] = tested on: SKBR3 breast cancer cells rich in HER2 antigen; assay: ADCC biological activity reporter gene assay (Jurkat-hFcγRIIIa-NFAT effector cells, luciferase); type: cell-based; settings: compared with the validated purified Anti-HER2 IgG1 (h4D5) recombinant antibody protein; 24 hours of reaction
Procedure: Jurkat-hFcγRIIIa-NFAT gene transgenic cells was used as effector cells and SKBR3 breast cancer cells rich in HER2 antigen was used as target cells in ADCC biological activity reporter gene detection system (Promega, #G9790).
First, 100 μl of SKBR3 cells with a cell density of 10^5/ml were added to the 96-well culture plate, placed at 37° C. for overnight culture to allow the cells to adhere and grow, the supernatant was removed the next day, and 25 μl of serially diluted recombinant antibodies prepared in […] medium containing 0.5% fetal bovine serum were added. Next, 25 μl of lurkat-hFcγRIIIa-NFAT effector cells with a cell density of 6×10^6/ml were added.

With `CC1(CCO)CC2(CCC(C(C)(C)C)CC2)OO1` (centres unmarked) [FINO2] the “relation of increased dose to overall cell viability” value ([1]; FINO2 0 μM to 20 μM with 125 μM FeSO4, 72 hours) was “negatively correlated with overall cell viability”, the cell screening rate ([1]; high dose of ferroptosis inducer (>15 μM), 125 μM FeSO4, 72 hours) was 100% and the cytotoxicity [2] was “did not cause cytotoxicity”. For the same molecule, the “concentration producing significant screening effects” value [3] was 5 µM and the “concentration producing significant screening effects” value [4] was 1.25 µM.
For `CCCCCCCCCCCCCCCC(=O)O` [PA, Palmitic acid], the cytotoxicity [5] was “did not cause cytotoxicity”.
For “V2: Anti-HER2 IgG1 (h4D5) recombinant antibody produced by expression vector pBudCE4.1-CMV-GOI1-SV40-cgFth1-EF1α-GOI2”, the ADCC effect [6] was “could obviously induce ADCC”.
“V3: Anti-HER2 IgG1 (h4D5) recombinant antibody from cell line C8, vector pcDNA3.1-CMV-GOI1-furin-p2A-GOI2-IRES-cgFth1, without adding iron ions” was tested, and the ADCC effect [6] was “could obviously induce ADCC”.
